Results: US20070219186A1, “Pyrazolo[1,5-A]pyrimidine derivatives and methods of use thereof” (priority 2006, published 2007)
pIC50: −log10 of the molar value. Read-outs that look alike come from different tables or passages of the source.

Target: T1, human B-Raf (Homo sapiens, UniProt P15056)
T1 construct: Flag; GST; made in house; host or cells: Sf9 insect cells (B-Raf); E. coli (MEK1-GST)
Test: B-Raf Kinase to MEK1 ELISA
Format: biochemical
Conditions: for inhibition at 10 µM: read-out: % Inhib./10 uM
Outline: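 Flag/GST-tagged human B-Raf (Sf9, ~20 ng/point) phosphorylates non-active GST-MEK1 (50 nM final) with ATP and MgCl2 in MOPS pH 7.2 buffer, 60 min at RT. Product is captured on anti-GST plates; MEK1 pSer217/221 is read by phospho-antibody plus europium conjugate (DELFIA).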

[1] = median, cpd concentrations from 10 μM to 30 nM in half log dilutions, read-out: Median IC50

T1 sequence (P15056 whole entry): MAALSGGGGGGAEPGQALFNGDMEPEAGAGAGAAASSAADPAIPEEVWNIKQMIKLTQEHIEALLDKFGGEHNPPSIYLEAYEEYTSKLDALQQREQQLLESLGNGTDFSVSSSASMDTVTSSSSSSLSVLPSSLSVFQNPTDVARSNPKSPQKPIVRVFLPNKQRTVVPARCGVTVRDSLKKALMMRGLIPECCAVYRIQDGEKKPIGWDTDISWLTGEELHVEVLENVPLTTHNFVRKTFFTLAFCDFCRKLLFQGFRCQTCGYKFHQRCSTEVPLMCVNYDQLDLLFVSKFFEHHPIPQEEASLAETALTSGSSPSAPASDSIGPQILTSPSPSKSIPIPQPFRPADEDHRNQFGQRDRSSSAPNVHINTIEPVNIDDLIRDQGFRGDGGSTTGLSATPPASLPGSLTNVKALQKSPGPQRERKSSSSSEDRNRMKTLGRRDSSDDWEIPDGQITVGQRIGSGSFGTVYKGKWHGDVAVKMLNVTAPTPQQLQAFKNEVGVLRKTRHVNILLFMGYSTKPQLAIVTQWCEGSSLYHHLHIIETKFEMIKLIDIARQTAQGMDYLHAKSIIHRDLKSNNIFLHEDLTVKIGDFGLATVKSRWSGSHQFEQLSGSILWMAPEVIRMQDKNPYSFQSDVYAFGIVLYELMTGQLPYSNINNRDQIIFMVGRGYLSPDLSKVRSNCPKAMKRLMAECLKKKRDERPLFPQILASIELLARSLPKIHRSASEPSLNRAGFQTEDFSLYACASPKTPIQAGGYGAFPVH

| SMILES | pIC50 | inhibition at 10 µM | pIC50 [1] | % Inhib./10 uM (single point assay, 10 uM) |
| --- | --- | --- | --- | --- |
| O=C(Nc1cccc(-c2ccnc3c(C(=O)NCCN4CCOCC4)cnn23)c1)Nc1ccc(Cl)c(C(F)(F)F)c1 [Example 123, 7-{3-[({[4-chloro-3-(trifluoromethyl)phenyl]amino}carbonyl)amino]phenyl}-N-(2-morpholin-4-ylethyl)pyrazolo[1,5-a]pyrimidine-3-carboxamide] | 6.92 | 93% |  |  |
| CN(C)CCOC(=O)c1cnn2c(-c3cccc(NC(=O)c4cccc(C(F)(F)F)c4)c3)ccnc12 [Example 127, 2-(dimethylamino)ethyl 7-(3-{[3-(trifluoromethyl)benzoyl]amino}phenyl)pyrazolo[1,5-a]pyrimidine-3-carboxylate] |  | 54% | 5.15 |  |
| O=C(Nc1cccc(-c2ccnc3cc(-c4ccncc4)nn23)c1)c1ccc(Cl)c(C(F)(F)F)c1 [Example 129, 4-chloro-N-[3-(2-pyridin-4-ylpyrazolo[1,5-a]pyrimidin-7-yl)phenyl]-3-(trifluoromethyl)benzamide] | 7.30 | 86% |  |  |
| COc1ccc(C(=O)Nc2cccc(-c3ccnc4cc(-c5ccncc5)nn34)c2)cc1C(F)(F)F [Example 130, 4-methoxy-N-[3-(2-pyridin-4-ylpyrazolo[1,5-a]pyrimidin-7-yl)phenyl]-3-(trifluoromethyl)benzamide] |  | 91% | 7.15 |  |
| O=C(Nc1cccc(-c2ccnc3cc(-c4ccc(F)cc4)nn23)c1)c1cccc(C(F)(F)F)c1 [Example 139, N-{3-[2-(4-fluorophenyl)pyrazolo[1,5-a]pyrimidin-7-yl]phenyl}-3-(trifluoromethyl)benzamide] |  | 35% | < 5.00 |  |
| O=C(Nc1cccc(-c2ccnc3c(Br)cnn23)c1)Nc1ccc(Cl)c(C(F)(F)F)c1 [Example 143, N-[3-(3-bromopyrazolo[1,5-a]pyrimidin-7-yl)phenyl]-N′-[4-chloro-3-(trifluoromethyl)phenyl]urea] |  | 92% | 6.85 |  |
| O=C(Nc1cccc(-c2ccnc3cc(-c4ccncc4)nn23)c1)c1ccccc1Cl [Example 145, 2-chloro-N-[3-(2-pyridin-4-ylpyrazolo[1,5-a]pyrimidin-7-yl)phenyl]benzamide] |  | 24% | < 5.00 |  |
| COc1cccc(C(=O)Nc2cccc(-c3ccnc4cc(-c5ccncc5)nn34)c2)c1 [Example 146, 3-methoxy-N-[3-(2-pyridin-4-ylpyrazolo[1,5-a]pyrimidin-7-yl)phenyl]benzamide] | 5.40 |  |  |  |
| Cc1cccc(C(=O)Nc2cccc(-c3ccnc4cc(-c5ccncc5)nn34)c2)c1 [Example 147, 3-methyl-N-[3-(2-pyridin-4-ylpyrazolo[1,5-a]pyrimidin-7-yl)phenyl]benzamide] |  | 66% | 5.85 |  |
| O=C(Nc1cccc(-c2ccnc3cc(-c4ccncc4)nn23)c1)c1cccc(Cl)c1 [Example 150, 3-chloro-N-[3-(2-pyridin-4-ylpyrazolo[1,5-a]pyrimidin-7-yl)phenyl]benzamide] | 5.96 |  |  |  |
| O=C(Nc1cccc(-c2ccnc3cc(-c4ccncc4)nn23)c1)c1ccc(Cl)cc1 [Example 151, 4-chloro-N-[3-(2-pyridin-4-ylpyrazolo[1,5-a]pyrimidin-7-yl)phenyl]benzamide] |  | 33% | < 5.00 |  |
| O=C(Nc1cccc(-c2ccnc3cc(-c4cccnc4)nn23)c1)c1cccc(C(F)(F)F)c1 [Example 152, N-[3-(2-pyridin-3-ylpyrazolo[1,5-a]pyrimidin-7-yl)phenyl]-3-(trifluoromethyl)benzamide] |  |  | < 5.00 |  |
| O=C(Nc1cccc(-c2ccnc3ccnn23)c1)c1cccc(C(F)(F)F)c1 [Example 153, N-(3-pyrazolo[1,5-a]pyrimidin-7-ylphenyl)-3-(trifluoromethyl)benzamide] |  | 31% | < 5.00 |  |
| O=C(Nc1cccc(-c2ccnc3c(-c4cccnc4)cnn23)c1)c1cccc(C(F)(F)F)c1 [Example 155, N-[3-(3-pyridin-3-ylpyrazolo[1,5-a]pyrimidin-7-yl)phenyl]-3-(trifluoromethyl)benzamide] | 7.02 | 103% |  |  |
| Nc1cccc(-c2cnn3c(-c4cccc(NC(=O)c5cccc(C(F)(F)F)c5)c4)ccnc23)c1 [Example 156, N-{3-[3-(3-aminophenyl)pyrazolo[1,5-a]pyrimidin-7-yl]phenyl}-3-(trifluoromethyl)benzamide] | 7.00 | 86% |  |  |
| CN(C)c1ccc(-c2cnn3c(-c4cccc(NC(=O)c5cccc(C(F)(F)F)c5)c4)ccnc23)cc1 [Example 157, N-(3-{3-[4-(dimethylamino)phenyl]pyrazolo[1,5-a]pyrimidin-7-yl}phenyl)-3-(trifluoromethyl)benzamide] | 6.52 | 66% |  |  |

The remaining lines, values ahead:

| pIC50 | inhibition at 10 µM | pIC50 [1] | % Inhib./10 uM (single point assay, 10 uM) | SMILES |
| --- | --- | --- | --- | --- |
| 6.85 | 83% |  |  | CCN(CC)CCNC(=O)c1cnn2c(-c3cccc(NC(=O)Nc4ccc(Cl)c(C(F)(F)F)c4)c3)ccnc12 [Example 122, 7-{3-[({[4-chloro-3-(trifluoromethyl)phenyl]amino}carbonyl)amino]phenyl}-N-[2-(diethylamino)ethyl]pyrazolo[1,5-a]pyrimidine-3-carboxamide] |
|  | 67% | 6.05 |  | O=C(Nc1cccc(-c2ccnc3c(C(=O)OCC(F)(F)F)cnn23)c1)c1cccc(C(F)(F)F)c1 [Example 125, 2,2,2-trifluoroethyl 7-(3-{[3-(trifluoromethyl)benzoyl]amino}phenyl)pyrazolo[1,5-a]pyrimidine-3-carboxylate] |
|  | 17% | < 5.00 |  | O=C(Nc1cccc(-c2ccnc3c(C(=O)Oc4cccnc4)cnn23)c1)c1cccc(C(F)(F)F)c1 [Example 126, pyridin-3-yl 7-(3-{[3-(trifluoromethyl)benzoyl]amino}phenyl)pyrazolo[1,5-a]pyrimidine-3-carboxylate] |
|  | 68% | 6.94 |  | COCCOC(=O)c1cnn2c(-c3cccc(NC(=O)c4cccc(C(F)(F)F)c4)c3)ccnc12 [Example 128, 2-methoxyethyl 7-(3-{[3-(trifluoromethyl)benzoyl]amino}phenyl)pyrazolo[1,5-a]pyrimidine-3-carboxylate] |
|  | 98% | 7.52 |  | O=C(Nc1cccc(-c2ccnc3cc(-c4ccncc4)nn23)c1)Nc1ccc(F)c(C(F)(F)F)c1 [Example 131, N-[4-fluoro-3-(trifluoromethyl)phenyl]-N′-[3-(2-pyridin-4-ylpyrazolo[1,5-a]pyrimidin-7-yl)phenyl]urea] |
|  |  | 7.52 | 98% | O=C(Nc1cccc(-c2ccnc3cc(-c4ccncc4)nn23)c1)Nc1ccc(Cl)c(C(F)(F)F)c1 [Example 133, N-[4-chloro-3-(trifluoromethyl)phenyl]-N′-[3-(2-pyridin-4-ylpyrazolo[1,5-a]pyrimidin-7-yl)phenyl]urea] |
|  | 96% | 7.40 |  | Cc1ccc(C(=O)Nc2cccc(-c3ccnc4cc(-c5ccncc5)nn34)c2)cc1C(F)(F)F [Example 134, 4-methyl-N-[3-(2-pyridin-4-ylpyrazolo[1,5-a]pyrimidin-7-yl)phenyl]-3-(trifluoromethyl)benzamide] |
|  | 32% | < 5.00 |  | O=C(Nc1cccc(-c2ccnc3cc(-c4ccc(CO)cc4)nn23)c1)c1cccc(C(F)(F)F)c1 [Example 135, N-(3-{2-[4-(hydroxymethyl)phenyl]pyrazolo[1,5-a]pyrimidin-7-yl}phenyl)-3-(trifluoromethyl)benzamide] |
| < 5.00 | 35% |  |  | COc1ccc(-c2cc3nccc(-c4cccc(NC(=O)c5cccc(C(F)(F)F)c5)c4)n3n2)cc1 [Example 136, N-{3-[2-(4-methoxyphenyl)pyrazolo[1,5-a]pyrimidin-7-yl]phenyl}-3-(trifluoromethyl)benzamide] |
|  |  | < 5.00 |  | O=C(Nc1cccc(-c2ccnc3cc(-c4cccc(C(F)(F)F)c4)nn23)c1)c1cccc(C(F)(F)F)c1 [Example 137, 3-(trifluoromethyl)-N-(3-{2-[3-(trifluoromethyl)phenyl]pyrazolo[1,5-a]pyrimidin-7-yl}phenyl)benzamide] |
|  | 46% | < 5.00 |  | CC(C)(C)c1cc2nccc(-c3cccc(NC(=O)c4cccc(C(F)(F)F)c4)c3)n2n1 [Example 138, N-[3-(2-tert-butylpyrazolo[1,5-a]pyrimidin-7-yl)phenyl]-3-(trifluoromethyl)benzamide] |
|  | 39% | < 5.00 |  | CCOCOCc1ccc(-c2cc3nccc(-c4cccc(NC(=O)c5cccc(C(F)(F)F)c5)c4)n3n2)cc1 [Example 140, N-[3-(2-{4-[(ethoxymethoxy)methyl]phenyl}pyrazolo[1,5-a]pyrimidin-7-yl)phenyl]-3-(trifluoromethyl)benzamide] |
|  | 32% | < 5.00 |  | COC(=O)c1cccc(-c2cc3nccc(-c4cccc(NC(=O)c5cccc(C(F)(F)F)c5)c4)n3n2)c1 [Example 141, methyl 3-[7-(3-{[3-(trifluoromethyl)benzoyl]amino}phenyl)pyrazolo[1,5-a]pyrimidin-2-yl]benzoate] |
|  | 15% | < 5.00 |  | O=C(Nc1cccc(-c2ccnc3cc(-c4ccncc4)nn23)c1)c1ccccc1 [Example 144, N-[3-(2-pyridin-4-ylpyrazolo[1,5-a]pyrimidin-7-yl)phenyl]benzamide] |
|  | 20% | < 5.00 |  | Cc1ccc(C(=O)Nc2cccc(-c3ccnc4cc(-c5ccncc5)nn34)c2)cc1 [Example 148, 4-methyl-N-[3-(2-pyridin-4-ylpyrazolo[1,5-a]pyrimidin-7-yl)phenyl]benzamide] |
| 5.90 | 72% |  |  | O=C(Nc1cccc(-c2ccnc3cc(-c4ccncc4)nn23)c1)c1ccc(Cl)c(Cl)c1 [Example 149, 3,4-dichloro-N-[3-(2-pyridin-4-ylpyrazolo[1,5-a]pyrimidin-7-yl)phenyl]benzamide] |
